Patent publication US7491849B2, “Oligoamine compounds and derivatives thereof for cancer therapy” (priority 2001, dated 2009)

Key:
DuPro = experiment: MTT assay, tumor cell growth, DuPro; assay type: cell-based; settings: 6 days incubation, read-out: ID50 (μM) values for Human Tumor Cell Lines, DuPro
Protocol: (§1) Effect of Saturated Oligoamines on Human Prostate Tumor Cell Growth by the MTT assay. Saturated oligoamines inhibited prostate cancer cell growth in vitro. DU-145 cells were most sensitive and PC-3 cells were less sensitive to the effects of oligoamines. In general, ID50 values of less than 0.5 μM were obtained (Table 2). Even though the PC-3 cells were relatively more resistant to the oligoamines, at a 5 μM concentration the oligoamines reduced the cell number to less than 1% of the control on day 6 of incubation. Tissue cultures and the MTT assay were performed as follows.
(§2) Tissue Culture. Cells were seeded into 75 cm^2 culture flasks with 15 ml of Eagle's minimal essential medium supplemented with 10% fetal calf serum and nonessential amino acids. The flasks were incubated in a humidified 95% air/5% CO2 atmosphere. The cells were grown for at least 24 h to ensure that they are in the log phase of growth and then they were treated with the oligoamines. Cells were harvested by treatment for 5 min with STV (saline A, 0.05% trypsin, 0.02% EDTA) at 37° C. The flasks were rapped on the lab bench, pipetted several times and aliquots of cell suspension were withdrawn and counted using a Coulter particle counter that has been standardized for counting each cell line using a hemacytometer.
(§3) MTT Assay: Trypsinized cell suspensions were diluted to seed 80 μl suspensions containing 500 cells in each well of a 96 well Corning microtiter plate and incubated overnight at 37° C. in a humidified incubator in 5% CO2. 20 μl of appropriately diluted stock solution of each drug were added to the middle 8 columns of cell suspension in the microtiter plates. Each drug concentration was run in quadruplicate. Outer columns of the plates were used for buffer controls. Cells were incubated with the drug for 6 days at 37° C. in 5% CO2/H2O atmosphere. 25 μl of 5 mg/ml solution of 3-(4,5-dimethylthiazol-2-yl)-2,5-diphenyl tetrazolium bromide (MTT) were added to each well and incubated for 4 hours at 37° C. in 5% CO2/H2O incubator. Cells were lysed by incubating overnight with 100 μl lysis buffer (500 ml of the lysis buffer contains: 100 g lauryl sulfate (SDS), 250 ml of N,N-dimethylformamide, and 2 ml of glacial acetic acid, made up to volume with water; pH 4.8).
(§4) The color was monitored at room temperature at 570 nm in a E-max Precision Microplate Reader (Molecular Devices Corporation, Sunnyvale, Calif.) and data was analyzed using cell survival software supplied by Molecular Devices Corporation.

DuPro Cells = experiment: Cellular polyamine and oligoamine levels, DuPro cells (HPLC); assay type: cell-based
Protocol: (§5) Cellular Uptake of Oligoamines. There was considerable uptake of oligoamines by the cancer cell lines; see Table 3A (DuPro cells) and Table 3B (PC-3 cells). […] While not wishing to be limited by any particular theory of operation, the cytotoxicity is likely related to their strong aggregation effect on DNA.
(§6) Polyamine Analysis. An appropriate number of cells were taken from harvested samples and centrifuged at 1000 rpm at 4° C. for 5 min. The cells were washed twice with chilled Dulbecco's isotonic phosphate buffer (pH 7.4) by centrifugation at 1000 rpm at 4° C. and resuspended in the same buffer. After the final centrifugation, the supernatant was decanted, and […] of 8% sulfosalycilic acid was added to the cell pellet. The cells were sonicated, and the mixture was kept at 4° C. for at least 1 h. After centrifugation at 8000 g for 5 min, the supernatant was removed for analysis. An appropriate volume (50-100 μl) was fluorescence-labeled by derivatizing with dansyl chloride. Labeled polyamines were loaded onto a C-18 high-performance liquid chromatography column and separated by gradient elution with acetonitrile/water at 50° C. Peaks were detected and quantitated using Shimadzu HPLC fluorescence monitor coupled with a Spectra-Physics peak integrator. Because polyamine levels vary with environmental conditions, control cultures were sampled for each experiment.

LnCap = experiment: MTT assay, tumor cell growth, LnCap; assay type: cell-based; settings: 6 days incubation, read-out: ID50 (μM) values for Human Tumor Cell Lines, LnCap
Protocol: as §1, §2, §3, §4

DU145 = experiment: MTT assay, tumor cell growth, DU145; assay type: cell-based; settings: 6 days incubation, read-out: ID50 (μM) values for Human Tumor Cell Lines, DU145
Protocol: as §1, §2, §3, §4

PC-3 = experiment: MTT assay, tumor cell growth, PC-3; assay type: cell-based; settings: 6 days incubation, read-out: ID50 (μM) values for Human Tumor Cell Lines, PC-3
Protocol: as §1, §2, §3, §4

PC-3 Cells = experiment: Cellular polyamine and oligoamine levels, PC-3 cells (HPLC); assay type: cell-based
Protocol: as §5, §6

Calf-thymus DNA = Calf-thymus DNA aggregation (absorbance at 320 nm); assay type: biochemical; settings: 50 mM NaCl, 1 mM Na-cacodylate pH 7.0
Protocol: Calf-thymus DNA aggregation by spermine and oligoamines.
Test for DNA Aggregation: DNA aggregation was studied using a Perkin-Elmer Lambda 25 UV/visible spectrophotometer connected to a PTP 6 heating unit using a previously published procedure (see Basu, H S and Marton, L J, “The interaction of spermine and pentamines with DNA,” Biochemical Journal 244:243-246 (1987)). Aggregation was determined in 50 mM NaCl, 1 mM Na-cacodylate pH 7.0 buffer by observing the increase in DNA absorbance (approximately 0.5 A260 units) at 320 nm.

[1] = Day 4 of Treatment, analog conc. 0.8 μM
[2] = Day 4 of Treatment, analog conc. 1.6 μM
[3] = Day 6 of Treatment, analog conc. 0.8 μM
[4] = PC-3, Day 4 of Treatment, analog conc. 1 μM
[5] = PC-3, Day 4 of Treatment, analog conc. 5 μM
[6] = PC-3, Day 6 of Treatment, analog conc. 1 μM

Compound | IC50 (DuPro) [µM] | Polyamine levels, Analog (cellular oligoamine level) (DuPro Cells; [1]) [nmoles/10^6 cells] | Polyamine levels, Put (DuPro Cells; [1]) [nmoles/10^6 cells] | Polyamine levels, Spm (DuPro Cells; [1]) [nmoles/10^6 cells] | Polyamine levels, Analog (cellular oligoamine level) (DuPro Cells; [2]) [nmoles/10^6 cells] | Polyamine levels, Put (DuPro Cells; [2]) [nmoles/10^6 cells] | Polyamine levels, Analog (cellular oligoamine level) (DuPro Cells; [3]) [nmoles/10^6 cells] | Polyamine levels, Put (DuPro Cells; [3]) [nmoles/10^6 cells] | IC50 (LnCap) [µM] | IC50 (DU145) [µM] | IC50 (PC-3) [µM] | Polyamine levels, Analog (cellular oligoamine level) (PC-3 Cells; [4]) [nmoles/10^6 cells] | Polyamine levels, Analog (cellular oligoamine level) (PC-3 Cells; [5]) [nmoles/10^6 cells] | Polyamine levels, Analog (cellular oligoamine level) (PC-3 Cells; [6]) [nmoles/10^6 cells] | Conc. (μM) at the start of DNA Aggregation (Calf-thymus DNA) [µM] | also measured
CCNCCCCNCCCCNCCCCNCCCCNCCCCNCCCCNCCCCNCC.Cl.Cl.Cl.Cl.Cl.Cl.Cl.Cl [SL-11160] | 0.55 | 0.575 | 0.430 | 0.222 | 0.775 | 0.412 | 0.410 | 0.675 | 0.15 | 0.13 | 0.4 | 0.005 | 0.011 | 0.007 | 4.5 | Polyamine levels, Spd (DuPro Cells; [1]): 0.897 nmoles/10^6 cells; Polyamine levels, Spm (DuPro Cells; [2]): 0.195 nmoles/10^6 cells; Polyamine levels, Spd (DuPro Cells; [3]): 1.470 nmoles/10^6 cells; Polyamine levels, Spm (DuPro Cells; [3]): 0.290 nmoles/10^6 cells; Polyamine levels, Spd (PC-3 Cells; [4]): 0.097 nmoles/10^6 cells; Polyamine levels, Spm (PC-3 Cells; [4]): 0.502 nmoles/10^6 cells; Polyamine levels, Spd (PC-3 Cells; [5]): 0.077 nmoles/10^6 cells; Polyamine levels, Spm (PC-3 Cells; [5]): 0.525 nmoles/10^6 cells; Polyamine levels, Spd (PC-3 Cells; [6]): 0.085 nmoles/10^6 cells; Polyamine levels, Spm (PC-3 Cells; [6]): 0.180 nmoles/10^6 cells
CCNCCCCNCCCCNCCCCNCCCCNCCCCNCCCCNCCCCNCCCCNCCCCNCCCCNCCCCNCCCCNCCCCNCC.Cl.Cl.Cl.Cl.Cl.Cl.Cl.Cl.Cl.Cl.Cl.Cl.Cl.Cl [SL-11175] | 0.35 | 0.145 | 0.157 | 0.050 | 0.150 | 0.410 | 0.023 | 0.155 | 0.32 | 0.24 | 0.5 | 0.055 | 0.128 | 0.08 | 2.0 | Polyamine levels, Put (PC-3 Cells; [4]): 0.515 nmoles/10^6 cells; Polyamine levels, Put (PC-3 Cells; [5]): 0.519 nmoles/10^6 cells; Polyamine levels, Put (PC-3 Cells; [6]): 0.76 nmoles/10^6 cells
NCCCNCCCCNCCCN [Spermine, reference compound] |  |  |  |  |  |  |  |  |  |  |  |  |  |  | 88.5 | 
